Assay results: article PMC6083370, “Influence of OATPs on Hepatic Disposition of Erlotinib Measured With Positron Emission Tomography” (Clinical Pharmacology and Therapeutics, 2017)

Experiments:
[1] = design: method as in PMID 23887590; conditions: following ritonavir pretreatment; cited from earlier work
[2] = test system: OATP2B1; design: method as in PMID 28005438; conditions: cited from earlier work
[3] = design: method as in PMID 27036206; conditions: combination of erlotinib with rosuvastatin, 24 patients; cited from earlier work
[4] = target: T1, OATP2B1 (SLCO2B1) (Homo sapiens, UniProt O94956)
T1 sequence (O94956 1-709): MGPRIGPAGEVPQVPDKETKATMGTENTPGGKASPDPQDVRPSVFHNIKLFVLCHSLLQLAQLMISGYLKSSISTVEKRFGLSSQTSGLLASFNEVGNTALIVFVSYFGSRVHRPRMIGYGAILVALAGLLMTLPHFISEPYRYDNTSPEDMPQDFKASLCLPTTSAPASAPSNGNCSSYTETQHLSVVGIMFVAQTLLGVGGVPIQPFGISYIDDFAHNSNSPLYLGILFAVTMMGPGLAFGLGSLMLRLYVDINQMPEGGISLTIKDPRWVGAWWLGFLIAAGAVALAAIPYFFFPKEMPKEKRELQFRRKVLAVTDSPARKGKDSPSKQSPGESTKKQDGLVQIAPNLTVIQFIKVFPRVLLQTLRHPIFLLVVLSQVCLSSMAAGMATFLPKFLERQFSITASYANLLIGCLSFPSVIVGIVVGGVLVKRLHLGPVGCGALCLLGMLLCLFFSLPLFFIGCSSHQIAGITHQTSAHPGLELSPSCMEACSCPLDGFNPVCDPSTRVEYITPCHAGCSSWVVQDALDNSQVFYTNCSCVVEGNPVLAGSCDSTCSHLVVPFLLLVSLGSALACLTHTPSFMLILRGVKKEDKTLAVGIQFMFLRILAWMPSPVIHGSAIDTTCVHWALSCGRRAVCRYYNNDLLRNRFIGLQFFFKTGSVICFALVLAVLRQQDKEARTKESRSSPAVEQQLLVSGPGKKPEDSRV
Method: OATP overexpression was confirmed by Western blotting. Functionality of the OATPs was verified by [^3H]estrone-3-sulfate uptake experiments. A431 cells transfected with the empty vector were used as a negative control. All cell lines were cultured in Dulbecco's modified eagle medium supplemented with 10% fetal bovine serum, 2 mM L-glutamine, 100 units/mL penicillin and 100 µg/mL streptomycin. […] On the day of the experiment, growth medium was aspired and cells were washed with pre-warmed transport buffer (Hank's balanced salt solution supplemented with 10 mM N-2-hydroxyethylpiperazine-N-2-ethane sulfonic acid). […] Then the drug solutions were removed and cells were washed with pre-warmed transport buffer. […] For time dependency experiments, pre-warmed transport buffer was added and cells were incubated for 30 min. […] For concentration dependency experiments, pre-warmed transport buffer was added and cells were incubated for 30 min. […] In all experiments, cell count was determined on separate 24-well tissue culture plates before or after each experiment. In all experiments, radiotracer solutions were aspired following incubation and cells were washed twice with ice-cold transport buffer. […] Each inhibition experiment was performed 2 times with 3 technical replicates each and radioactivity in cells was corrected for radioactive decay, normalized to 10^6 cells and expressed as percent of vector control (% control). The time dependency experiment was performed once with 3 technical replicates and radioactivity in cells was corrected for radioactive decay and expressed as percent of applied dose per 10^6 cells (%AD/10^6 cells). The concentration dependency experiment was performed once with 3 technical replicates and radioactivity in cells was corrected for radioactive decay. Kinetic parameters were determined using a previously described method.^2 In brief, cellular radioactivity uptake was converted into units of pmol/min/10^6 cells. OATP2B1-specific uptake of erlotinib was determined by subtracting the uptake into cells transfected with the empty vector from the uptake into cells transfected with OATP2B1. The following equation was used to obtain kinetic parameters:
where v is the uptake velocity of erlotinib (pmol/min/10^6 cells), S is the erlotinib concentration in the transport buffer (µM), Km is the Michaelis constant (µM), Vmax is the maximum uptake velocity (pmol/min/10^6 cells), and Pdif is the non-saturable uptake clearance (µL/min/10^6 cells). Curve fitting was performed by the non-linear regression method with a modified Michaelis-Menten model according to equation 1 using Prism 6.0 software (GraphPad Software).

SMILES: Cc1cc(C)c(NC(=O)CN(CC(=O)[O-])CC(=O)[O-])c(C)c1Br.Cc1cc(C)c(NC(=O)CN(CC(=O)[O-])CC(=O)[O-])c(C)c1Br.[99Tc+4] [[^99mTc]mebrofenin]
- increase in the efflux clearance from liver to blood [1]: 517%
- reduction in CL uptake [1]: 46%

SMILES: COc1cc2ncnc(Nc3ccc(F)c(Cl)c3)c2cc1OCCCN1CCOCC1 [gefitinib]
- transport by OATP2B1 [2]: transported

SMILES: CC(C)c1nc(N(C)S(C)(=O)=O)nc(-c2ccc(F)cc2)c1/C=C/[C@@H](O)C[C@@H](O)CC(=O)O [rosuvastatin]
- rate of muscle toxicity [3]: 34%

SMILES: C#Cc1cccc(Nc2ncnc3cc(OCCOC)c(OCCO[11CH3])cc23)c1 [[^11C]erlotinib]
- Michaelis constant (K m) of the saturable component of OATP2B1‐specific uptake ([4]; 7.5 min, erlotinib 0.05–2.05 μM, ± standard error): 0.324 ± 0.182 µM
- incubation time at maximum difference in uptake between OATP2B1 cells and the other cells ([4]; <0.1 μM, time dependency experiment): 10 to 15 min

SMILES: CO[C@H]1/C=C/O[C@@]2(C)Oc3c(C)c(O)c4c(O)c(c(/C=N/N5CCN(C)CC5)c(O)c4c3C2=O)NC(=O)/C(C)=C\C=C\[C@H](C)[C@H](O)[C@@H](C)[C@@H](O)[C@@H](C)[C@H](OC(C)=O)[C@@H]1C [rifampicin]
- effect on [^11C]erlotinib uptake in OATP2B1 overexpressing cells ([4]; erlotinib 1 μM, cyclosporine A 10 μM, rifampicin 100 μM, 5 min): significantly decreased
